Results published in patent publication US11279733B2, “Peptide antibiotics” (priority 2017, dated 2022).
≈ marks a conversion by molar mass, not a printed value. Read-outs that look alike come from different tables or passages of the source. Positions of bridges follow the written chain, without caps; N, C: chain ends. Non-standard residues stand in square brackets, D forms with d. Residues, ends and D or L forms follow the SMILES beside them. *: point of attachment. Decanoyl(3R-OH) = CCCCCCC[C@@H](O)CC(=O)*; Ala(cPr) = N[C@@H](CC1CC1)C(=O)O; dDab = NCC[C@@H](N)C(=O)O; Dab = NCC[C@H](N)C(=O)O; Dap = NC[C@H](N)C(=O)O

Key:
A. baumannii GN_093 PmxR = details: GN 093 PmxR
How it was run: (§1)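 Mid-log cultures grown in Mueller Hinton broth at 37° C were tested by 2-fold broth microdilution at 5×10^5 CFU/mL final. Compounds were dissolved in water and tested over a final range of 32 to 0.015 μg/mL.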

[1] = tested on: K. pneumoniae ATCC BAA-2146, NDM-1 pos; details: ATCC BAA-2146
How it was run: as §1

[2] = tested on: P. aeruginosa GN_105, PmxR; details: GN 105, PmxR
How it was run: as §1

K. pneumoniae ATCC 13883 = details: ATCC 13883
How it was run: as §1

[3] = tested on: K. pneumoniae ATCC 700603, MDR; details: ATCC 700603
How it was run: as §1

[4] = tested on: S. aureus ATCC 25923, MSSA; details: ATCC 25923
How it was run: as §1

[5] = tested on: K. pneumoniae GN_102 PmxR; details: GN 102 PmxR
How it was run: as §1

A. baumannii ATCC 19606 = details: ATCC 19606
How it was run: as §1

E. coli ATCC 25922 = details: ATCC 25922
How it was run: as §1

P. aeruginosa ATCC 27853 = details: ATCC 27853
How it was run: as §1

[6] = tested on: K. pneumoniae GN_106, PmxR; details: GN 106, PmxR
How it was run: as §1

[7] = tested on: P. aeruginosa GN_043, PmxR
How it was run: as §1

in vitro = details: human
How it was run: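 4000 cells/well, 24 h attach (37 °C, 5% CO2); compound 24 h; 5 μM resazurin 2 h, 37 °C; fluorescence ex/em 560/590. CC50 by curve fit.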

Row | SMILES | MIC A. baumannii GN_093 PmxR (A. baumannii GN_093 PmxR) | MIC K. pneumoniae ATCC BAA-2146, NDM-1 pos [1] | MIC P. aeruginosa GN_105, PmxR [2] | MIC K. pneumoniae ATCC 13883 (K. pneumoniae ATCC 13883) | MIC K. pneumoniae ATCC 700603, MDR [3] | MIC S. aureus ATCC 25923, MSSA [4] | MIC K. pneumoniae GN_102 PmxR [5] | MIC A. baumannii ATCC 19606 (A. baumannii ATCC 19606) | MIC E. coli ATCC 25922 (E. coli ATCC 25922) | MIC P. aeruginosa ATCC 27853 (P. aeruginosa ATCC 27853) | MIC K. pneumoniae GN_106, PmxR [6] | MIC P. aeruginosa GN_043, PmxR ([7]; polymyxin-resistant) | CC50 at 24 h (in vitro) | further results
1 | CCCCCCC[C@@H](O)CC(=O)N[C@H](CCN)C(=O)N[C@H]1CCNC(=O)[C@H](CC(C)C)NC(=O)[C@H](CCCCN)NC(=O)[C@H](CCN)NC(=O)[C@H](CC(C)C)NC(=O)[C@@H](Cc2ccccc2)NC(=O)[C@H](CCN)NC1=O [compound 989, 3(R)OH-nC9CO-D-Dab-cyc[L-Dab-L-Dab-D-Phe-L-Leu-L-Dab-L-Lys-L-Leu]] ({Decanoyl(3R-OH)}-[dDab][Dab][Dab][dF]L[Dab]KL; lactam 2-C) | 16 µg/mL (≈ 14.9 µM) | 2 µg/mL (≈ 1.86 µM) | 2 µg/mL (≈ 1.86 µM) | 4 µg/mL (≈ 3.73 µM) | 2 µg/mL (≈ 1.86 µM) | 16 µg/mL (≈ 14.9 µM) | 4 µg/mL (≈ 3.73 µM) | 8 µg/mL (≈ 7.46 µM) | 4 µg/mL (≈ 3.73 µM) | 2 µg/mL (≈ 1.86 µM) | 4 µg/mL (≈ 3.73 µM) | 2 µg/mL (≈ 1.86 µM) | > 300 µM | 
2 | CCCCCCC[C@@H](O)CC(=O)N[C@@H](CN)C(=O)N[C@H]1CCNC(=O)[C@H](CC(C)C)NC(=O)[C@H](CCN)NC(=O)[C@H](CCN)NC(=O)[C@H](CC(C)C)NC(=O)[C@@H](Cc2ccccc2)NC(=O)[C@H](CCN)NC1=O [compound 5561, 3(R)OH-nC9CO-L-Dap-cyc[L-Dab-L-Dab-D-Phe-L-Leu-L-Dab-L-Dab-L-Leu]] ({Decanoyl(3R-OH)}-[Dap][Dab][Dab][dF]L[Dab][Dab]L; lactam 2-C) | 8 µg/mL (≈ 7.76 µM) |  | 2 µg/mL (≈ 1.94 µM) |  |  |  | 4 µg/mL (≈ 3.88 µM) |  |  |  | 4 µg/mL (≈ 3.88 µM) |  | > 300 µM | MIC, K. pneumoniae ATCC BAA-2146, NDM-1 pos [1]: 8 µg/mL (≈ 7.76 µM); MIC, K. pneumoniae ATCC 13883 (K. pneumoniae ATCC 13883): 4 µg/mL (≈ 3.88 µM); MIC, K. pneumoniae ATCC 700603, MDR [3]: 8 µg/mL (≈ 7.76 µM); MIC, S. aureus ATCC 25923, MSSA [4]: 16 µg/mL (≈ 15.5 µM); MIC, A. baumannii ATCC 19606 (A. baumannii ATCC 19606): 16 µg/mL (≈ 15.5 µM); MIC, E. coli ATCC 25922 (E. coli ATCC 25922): 4 µg/mL (≈ 3.88 µM); MIC, P. aeruginosa ATCC 27853 (P. aeruginosa ATCC 27853): 2 µg/mL (≈ 1.94 µM); MIC P. aeruginosa GN_043, PmxR ([7]; Table 6, polymyxin-resistant): 2 µg/mL (≈ 1.94 µM)
3 | CCCCCCC[C@@H](O)CC(=O)N[C@H](CCN)C(=O)N[C@H]1CCNC(=O)[C@H](Cc2c[nH]c3ccccc23)NC(=O)[C@H](CCN)NC(=O)[C@H](CCN)NC(=O)[C@H](CC2CC2)NC(=O)[C@@H](Cc2ccccc2)NC(=O)[C@H](CCN)NC1=O [compound 8099, 3(R)OH-nC9CO-D-Dab-cyc[L-Dab-L-Dab-D-Phe-L-Ala(cycloprop)-L-Dab-L-Dab-L-Trp]] ({Decanoyl(3R-OH)}-[dDab][Dab][Dab][dF][Ala(cPr)][Dab][Dab]W; lactam 2-C) | 16 µg/mL (≈ 14.3 µM) | 4 µg/mL (≈ 3.59 µM) | >32 µg/mL | 8 µg/mL (≈ 7.17 µM) | 8 µg/mL (≈ 7.17 µM) | 16 µg/mL (≈ 14.3 µM) | 4 µg/mL (≈ 3.59 µM) | 8 µg/mL (≈ 7.17 µM) | 8 µg/mL (≈ 7.17 µM) | 2 µg/mL (≈ 1.79 µM) | 4 µg/mL (≈ 3.59 µM) | 2 µg/mL (≈ 1.79 µM) | 73 µM | 
4 | CCCCCCC[C@@H](O)CC(=O)N[C@H](CC(N)=O)C(=O)N[C@H]1CCNC(=O)[C@H](CC(C)C)NC(=O)[C@H](CCN)NC(=O)[C@H](CCN)NC(=O)[C@H](Cc2ccccc2)NC(=O)[C@@H](CC(C)C)NC(=O)[C@H](CCN)NC1=O [compound 6432, 3(R)OH-nC9CO-D-Asn-cyc[L-Dab-L-Dab-D-Leu-L-Phe-L-Dab-L-Dab-L-Leu]] ({Decanoyl(3R-OH)}-[dN][Dab][Dab][dL]F[Dab][Dab]L; lactam 2-C) | >32 µg/mL | 16 µg/mL (≈ 15.1 µM) | 8 µg/mL (≈ 7.56 µM) | 16 µg/mL (≈ 15.1 µM) | 16 µg/mL (≈ 15.1 µM) | >32 µg/mL | 4 µg/mL (≈ 3.78 µM) | 32 µg/mL (≈ 30.2 µM) | 16 µg/mL (≈ 15.1 µM) | 16 µg/mL (≈ 15.1 µM) | 4 µg/mL (≈ 3.78 µM) |  | > 300 µM | MIC P. aeruginosa GN_043, PmxR ([7]; P. aeruginosa GN_043, PmxR): 4 µg/mL (≈ 3.78 µM)
